# System: MV-4-11 cells
# Assay: Gene expression microarray analysis (Affymetrix PrimeView) and GSEA
# Assay type: cell-based, human
# Design: RFU PODN (11730768_x_at) / Fold change /veh PODN (11730768_x_at) / RFU LINC00158 (11744669_a_at) / Fold change /veh LINC00158 (11744669_a_at) / RFU DUSP10 (11751237_a_at) / Fold change /veh DUSP10 (11751237_a_at) / RFU ID3 (11757404_x_at) / Fold change /veh ID3 (11757404_x_at) / RFU PLEKHG5 (11737974_s_at) / Fold change /veh PLEKHG5 (11737974_s_at) / RFU LRRC4B (11730491_at) / Fold change /veh LRRC4B (11730491_at) / RFU GIMAP4 (11747438_a_at) / Fold change /veh GIMAP4 (11747438_a_at) / RFU KRT8 (11758183_x_at) / Fold change /veh KRT8 (11758183_x_at) / RFU CNN1 (11734310_a_at) / Fold change /veh CNN1 (11734310_a_at) / RFU VPS37D (11726825_at) / Fold change /veh VPS37D (11726825_at) / RFU C10orf10 (11716522_x_at) / Fold change /veh C10orf10 (11716522_x_at) / RFU KIR2DL2 /// KIR2DL4 /// KIR2DL5A /// KIR2DL5B /// KIR2DS1 /// KIR2DS2 /// KIR2DS3 /// KIR2DS4 /// KIR3DL3 /// KIR3DL3 /// KIR3DS1 (11738374_at) / Fold change /veh KIR2DL2 /// KIR2DL4 /// KIR2DL5A /// KIR2DL5B /// KIR2DS1 /// KIR2DS2 /// KIR2DS3 /// KIR2DS4 /// KIR3DL3 /// KIR3DL3 /// KIR3DS1 (11738374_at) / RFU C1QL1 (11718748_at) / Fold change /veh C1QL1 (11718748_at) / RFU TMPRSS4 (11747572_a_at) / Fold change /veh TMPRSS4 (11747572_a_at) / RFU HAMP (11756126_x_at) / Fold change /veh HAMP (11756126_x_at) / RFU RNFT2 (11725882_a_at) / Fold change /veh RNFT2 (11725882_a_at) / RFU NR4A2 (11747474_a_at) / Fold change /veh NR4A2 (11747474_a_at) / RFU ABCC12 (11746883_a_at) / Fold change /veh ABCC12 (11746883_a_at) / RFU TMEM136 (11760407_x_at) / Fold change /veh TMEM136 (11760407_x_at) / RFU CLDN22 /// WWC2 (11732394_at) / Fold change /veh CLDN22 /// WWC2 (11732394_at) / RFU HLA-DPB1 (11760878_x_at) / Fold change /veh HLA-DPB1 (11760878_x_at) / RFU SPINT1 (11716480_a_at) / Fold change /veh SPINT1 (11716480_a_at) / RFU GAP43 (11754022_s_at) / Fold change /veh GAP43 (11754022_s_at) / RFU A4GNT (11735810_at) / Fold change /veh A4GNT (11735810_at) / RFU PRB3 (11715151_x_at) / Fold change /veh PRB3 (11715151_x_at) / RFU TUBB4B (11761932_at) / Fold change /veh TUBB4B (11761932_at) / RFU CAPN14 (11732068_a_at) / Fold change /veh CAPN14 (11732068_a_at) / RFU TMCC2 (11721928_a_at) / Fold change /veh TMCC2 (11721928_a_at) / RFU IRGQ (11745062_a_at) / Fold change /veh IRGQ (11745062_a_at) / RFU FAM174B (11720279_a_at) / Fold change /veh FAM174B (11720279_a_at) / RFU TMPRSS4 (11748680_a_at) / Fold change /veh TMPRSS4 (11748680_a_at) / RFU FAM212B (11763350_a_at) / Fold change /veh FAM212B (11763350_a_at) / RFU PLEKHG5 (11743358_a_at) / Fold change /veh PLEKHG5 (11743358_a_at) / RFU ZSCAN30 (11745921_a_at) / Fold change /veh ZSCAN30 (11745921_a_at) / RFU CMKLR1 (11741424_a_at) / Fold change /veh CMKLR1 (11741424_a_at) / RFU LOC101060620 /// MAPK8IP1 (11723275_at) / Fold change /veh LOC101060620 /// MAPK8IP1 (11723275_at) / RFU SPTSSB (11747773_x_at) / Fold change /veh SPTSSB (11747773_x_at) / RFU PRSS12 (11739890_at) / Fold change /veh PRSS12 (11739890_at) / RFU BIN1 (11741810_x_at) / Fold change /veh BIN1 (11741810_x_at) / RFU WNT11 (11732464_a_at) / Fold change /veh WNT11 (11732464_a_at) / RFU C10orf10 (11716521_a_at) / Fold change /veh C10orf10 (11716521_a_at) / RFU C5orf56 (11738089_at) / Fold change /veh C5orf56 (11738089_at) / RFU CYB561 (11721691_x_at) / Fold change /veh CYB561 (11721691_x_at) / RFU ANKRD19P (11752326_a_at) / Fold change /veh ANKRD19P (11752326_a_at) / RFU OR2T12 /// OR2T33 /// OR2T8 (11738714_s_at) / Fold change /veh OR2T12 /// OR2T33 /// OR2T8 (11738714_s_at) / RFU VCAN (11748164_a_at) / Fold change /veh VCAN (11748164_a_at) / RFU JSRP1 (11732532_at) / Fold change /veh JSRP1 (11732532_at) / RFU KRTAP10-11 (11738290_x_at) / Fold change /veh KRTAP10-11 (11738290_x_at) / RFU MYO3A (11730013_a_at) / Fold change /veh MYO3A (11730013_a_at) / RFU EBF3 (11725865_a_at) / Fold change /veh EBF3 (11725865_a_at) / RFU CAMK2N1 (11719241_x_at) / Fold change /veh CAMK2N1 (11719241_x_at) / RFU C5orf56 (11738088_a_at) / Fold change /veh C5orf56 (11738088_a_at) / RFU OLFML3 (11715873_a_at) / Fold change /veh OLFML3 (11715873_a_at) / RFU LOC100653217 /// NTM (11731650_a_at) / Fold change /veh LOC100653217 /// NTM (11731650_a_at) / RFU MAPK11 (11762145_a_at) / Fold change /veh MAPK11 (11762145_a_at) / RFU FIZ1 (11724087_x_at) / Fold change /veh FIZ1 (11724087_x_at) / RFU OASL (11726364_x_at) / Fold change /veh OASL (11726364_x_at) / RFU SOX15 (11748057_x_at) / Fold change /veh SOX15 (11748057_x_at) / RFU CD79A (11719716_a_at) / Fold change /veh CD79A (11719716_a_at) / RFU HIST1H1D (11736915_at) / Fold change /veh HIST1H1D (11736915_at) / RFU CASKIN2 (11723855_a_at) / Fold change /veh CASKIN2 (11723855_a_at) / RFU LOC730098 (11760151_x_at) / Fold change /veh LOC730098 (11760151_x_at) / RFU OR4N2 (11742367_at) / Fold change /veh OR4N2 (11742367_at) / RFU PRRT2 (11749266_a_at) / Fold change /veh PRRT2 (11749266_a_at) / RFU SNX32 (11753110_a_at) / Fold change /veh SNX32 (11753110_a_at) / RFU CDHR5 (11726645_a_at) / Fold change /veh CDHR5 (11726645_a_at) / RFU RCAN1 (11760418_a_at) / Fold change /veh RCAN1 (11760418_a_at) / RFU FAM167A (11723789_a_at) / Fold change /veh FAM167A (11723789_a_at) / RFU FAM26E (11764081_at) / Fold change /veh FAM26E (11764081_at) / RFU ISYNA1 (11749810_s_at) / Fold change /veh ISYNA1 (11749810_s_at) / RFU ACY1 (11761880_at) / Fold change /veh ACY1 (11761880_at) / RFU 11764098_at / Fold change /veh 11764098_at / RFU SAMD14 (11745864_x_at) / Fold change /veh SAMD14 (11745864_x_at) / RFU NPB (11741838_a_at) / Fold change /veh NPB (11741838_a_at) / RFU TMPRSS6 (11731388_a_at) / Fold change /veh TMPRSS6 (11731388_a_at) / RFU KRTAP10-2 (11738614_at) / Fold change /veh KRTAP10-2 (11738614_at) / RFU ARHGAP8 /// PRR5-ARHGAP8 (11727945_x_at) / Fold change /veh ARHGAP8 /// PRR5-ARHGAP8 (11727945_x_at) / RFU KRTAP5-7 /// NADSYN1 (11734609_at) / Fold change /veh KRTAP5-7 /// NADSYN1 (11734609_at) / RFU RASL12 (11751679_a_at) / Fold change /veh RASL12 (11751679_a_at) / RFU CDKN2B (11736163_a_at) / Fold change /veh CDKN2B (11736163_a_at) / RFU PRF1 (11729649_at) / Fold change /veh PRF1 (11729649_at) / RFU, ZNF638 /// ZNF638-IT1 / Fold change vs veh, ZNF638 /// ZNF638-IT1 / RFU, PANK3 / Fold change vs veh, PANK3 / RFU, SH3YL1 / Fold change vs veh, SH3YL1 / RFU, ZEB2 / Fold change vs veh, ZEB2 / RFU, NRIP1 / Fold change vs veh, NRIP1 / RFU, PTTG1IP / Fold change vs veh, PTTG1IP / RFU, CAPN2 / Fold change vs veh, CAPN2 / RFU, MED14 / Fold change vs veh, MED14 / RFU, SNORA58 / Fold change vs veh, SNORA58 / RFU, C1orf63 / Fold change vs veh, C1orf63 / RFU, LRRFIP1 / Fold change vs veh, LRRFIP1 / RFU, NDUFAF7 / Fold change vs veh, NDUFAF7 / RFU, SLC12A2 / Fold change vs veh, SLC12A2 / RFU, IBTK / Fold change vs veh, IBTK / RFU, ESF1 / Fold change vs veh, ESF1 / Fold change vs veh, TMEM50B / RFU, TAOK1 / Fold change vs veh, TAOK1 / RFU, ACBD3 / Fold change vs veh, ACBD3 / RFU, TMA16 / Fold change vs veh, TMA16 / RFU, RWDD3 / Fold change vs veh, RWDD3 / RFU, BCAT1 / Fold change vs veh, BCAT1 / RFU, EDEM3 / Fold change vs veh, EDEM3 / RFU, TMEM33 / Fold change vs veh, TMEM33 / RFU, WDR75 / Fold change vs veh, WDR75 / RFU, AHCTF1 / Fold change vs veh, AHCTF1 / RFU, TFRC / Fold change vs veh, TFRC / RFU, ZDHHC17 / Fold change vs veh, ZDHHC17 / RFU, NOM1 / Fold change vs veh, NOM1 / RFU, ARL8B / Fold change vs veh, ARL8B / RFU, ZBTB11 / Fold change vs veh, ZBTB11 / RFU, TAMM41 / Fold change vs veh, TAMM41 / RFU, KIAA1704 /// LOC100996395 / Fold change vs veh, KIAA1704 /// LOC100996395 / RFU, ING1 / Fold change vs veh, ING1 / RFU, TRMT61B / Fold change vs veh, TRMT61B / RFU, FUBP3 / Fold change vs veh, FUBP3 / RFU, TP53 / Fold change vs veh, TP53 / RFU, TNKS2 / Fold change vs veh, TNKS2 / RFU, ZFP14 / Fold change vs veh, ZFP14 / RFU, ACTR2 / Fold change vs veh, ACTR2 / RFU, PPP3R1 / Fold change vs veh, PPP3R1 / RFU, PIK3R1 / Fold change vs veh, PIK3R1 / RFU, HNRNPA1 / Fold change vs veh, HNRNPA1 / RFU, RNF170 / Fold change vs veh, RNF170 / RFU, ZNF28 / Fold change vs veh, ZNF28 / RFU, RNGTT / Fold change vs veh, RNGTT / RFU, OGT / Fold change vs veh, OGT / RFU, BRD1 / Fold change vs veh, BRD1 / RFU, MARS / Fold change vs veh, MARS / RFU, ZNF655 / Fold change vs veh, ZNF655 / RFU, FAHD1 / Fold change vs veh, FAHD1 / RFU, BDP1 / Fold change vs veh, BDP1 / RFU, LRRCC1 / Fold change vs veh, LRRCC1 / RFU, ARID1A / Fold change vs veh, ARID1A / RFU, ZNF146 / Fold change vs veh, ZNF146 / RFU, ZNF330 / Fold change vs veh, ZNF330 / RFU, GPN3 / Fold change vs veh, GPN3 / RFU, C9orf123 / Fold change vs veh, C9orf123 / RFU, N4BP2L2 / Fold change vs veh, N4BP2L2 / RFU, ARFIP1 / Fold change vs veh, ARFIP1 / RFU, FAM179B / Fold change vs veh, FAM179B / RFU, BCL10 / Fold change vs veh, BCL10 / RFU, UHRF1BP1L / Fold change vs veh, UHRF1BP1L / RFU, BET1 / Fold change vs veh, BET1 / RFU, CNOT2 / Fold change vs veh, CNOT2 / RFU, ZNF268 / Fold change vs veh, ZNF268 / Fold change vs veh, ZNF507 / RFU, DGCR2 / Fold change vs veh, DGCR2 / RFU, WDSUB1 / Fold change vs veh, WDSUB1 / Fold change vs veh, HSP90B1 /// MIR3652 / RFU, ADSS / Fold change vs veh, ADSS / RFU, GK / Fold change vs veh, GK / RFU, ZNF148 / Fold change vs veh, ZNF148 / RFU, TAF9 / Fold change vs veh, TAF9 / RFU, SLC1A5 / Fold change vs veh, SLC1A5 / RFU, SLMO2 / Fold change vs veh, SLMO2 / RFU, ABCC4 / Fold change vs veh, ABCC4 / RFU, LOC101060439 /// RAP1B / Fold change vs veh, LOC101060439 /// RAP1B / RFU, RFX7 / Fold change vs veh, RFX7 / RFU, GTPBP10 / Fold change vs veh, GTPBP10 / RFU, CNEP1R1 / Fold change vs veh, CNEP1R1 / RFU, BIVM-ERCC5 /// ERCC5 / Fold change vs veh, BIVM-ERCC5 /// ERCC5 / RFU, ILF3 / Fold change vs veh, ILF3 / RFU 11762660_at / Fold change /veh 11762660_at / RFU VCAN (11757783_s_at) / Fold change /veh VCAN (11757783_s_at) / RFU DDX43 (11728927_at) / Fold change /veh DDX43 (11728927_at) / RFU KRT8 (11758188_x_at) / Fold change /veh KRT8 (11758188_x_at) / RFU NKD1 (11759106_at) / Fold change /veh NKD1 (11759106_at) / RFU SRD5A1 (11742802_a_at) / Fold change /veh SRD5A1 (11742802_a_at) / RFU TPSAB1 /// TPSB2 (11721975_s_at) / Fold change /veh TPSAB1 /// TPSB2 (11721975_s_at) / RFU GSTM3 (11746129_a_at) / Fold change /veh GSTM3 (11746129_a_at) / RFU IL23R (11737362_x_at) / Fold change /veh IL23R (11737362_x_at) / RFU TMEM51 (11727254_a_at) / Fold change /veh TMEM51 (11727254_a_at) / RFU PIWIL2 (11732686_x_at) / Fold change /veh PIWIL2 (11732686_x_at) / RFU ORM1 (11744905_x_at) / Fold change /veh ORM1 (11744905_x_at) / RFU CCDC152 (11743942_at) / Fold change /veh CCDC152 (11743942_at) / RFU ECM1 (11717891_a_at) / Fold change /veh ECM1 (11717891_a_at) / RFU IL23R (11748794_a_at) / Fold change /veh IL23R (11748794_a_at) / RFU TNFAIP8L3 (11732012_x_at) / Fold change /veh TNFAIP8L3 (11732012_x_at) / RFU MBOAT4 (11741988_at) / Fold change /veh MBOAT4 (11741988_at) / RFU 11764193_at / Fold change /veh 11764193_at / RFU TMEM53 (11763286_at) / Fold change /veh TMEM53 (11763286_at) / RFU MAGEB2 (11727129_at) / Fold change /veh MAGEB2 (11727129_at) / RFU TMEM200A (11744735_a_at) / Fold change /veh TMEM200A (11744735_a_at) / RFU CCDC152 (11751479_a_at) / Fold change /veh CCDC152 (11751479_a_at) / RFU FAM211A (11726209_a_at) / Fold change /veh FAM211A (11726209_a_at) / RFU RGS16 (11746705_a_at) / Fold change /veh RGS16 (11746705_a_at) / RFU VCAN (11755009_s_at) / Fold change /veh VCAN (11755009_s_at) / RFU RHOB (11743442_s_at) / Fold change /veh RHOB (11743442_s_at) / RFU RGS16 (11720943_a_at) / Fold change /veh RGS16 (11720943_a_at) / RFU RGS16 (11720944_at) / Fold change /veh RGS16 (11720944_at) / RFU, VPS4B / Fold change vs veh, VPS4B / RFU, CREB1 / Fold change vs veh, CREB1 / RFU, DNAJC13 / Fold change vs veh, DNAJC13 / RFU, GNAQ / Fold change vs veh, GNAQ / RFU, CDK5R1 / Fold change vs veh, CDK5R1 / RFU, ZRANB3 / Fold change vs veh, ZRANB3 / RFU, CUL4A / Fold change vs veh, CUL4A / RFU, CCNY / Fold change vs veh, CCNY / RFU, UFL1 / Fold change vs veh, UFL1 / RFU, COG3 / Fold change vs veh, COG3 / RFU, DIAPH2 / Fold change vs veh, DIAPH2 / RFU, SKA2 / Fold change vs veh, SKA2 / RFU, AFF3 / Fold change vs veh, AFF3 / RFU, LMF1 / Fold change vs veh, LMF1 / RFU, IPO11 / Fold change vs veh, IPO11 / RFU, DFFB / Fold change vs veh, DFFB / RFU, FOXP1 / Fold change vs veh, FOXP1 / RFU, CARD8 / Fold change vs veh, CARD8 / RFU, STRN3 / Fold change vs veh, STRN3 / RFU, ADK / Fold change vs veh, ADK / RFU, RASSF2 / Fold change vs veh, RASSF2 / RFU, WIPF1 / Fold change vs veh, WIPF1 / RFU, LARP1B / Fold change vs veh, LARP1B / RFU, RASA1 / Fold change vs veh, RASA1 / RFU, RB1 / Fold change vs veh, RB1 / RFU, PPFIA1 / Fold change vs veh, PPFIA1 / RFU, MAT2A / Fold change vs veh, MAT2A / RFU, CCT5 / Fold change vs veh, CCT5 / RFU, WDR92 / Fold change vs veh, WDR92 / RFU, CUX1 / Fold change vs veh, CUX1 / RFU, TTC7A / Fold change vs veh, TTC7A / RFU, TMEM135 / Fold change vs veh, TMEM135 / RFU, DEPTOR / Fold change vs veh, DEPTOR / RFU, CPM / Fold change vs veh, CPM / RFU, DNAJB6 / Fold change vs veh, DNAJB6 / RFU, CACNA2D3 / Fold change vs veh, CACNA2D3 / RFU, DTX4 / Fold change vs veh, DTX4 / RFU, TFCP2 / Fold change vs veh, TFCP2 / RFU, GMCL1 /// GMCL1P1 / Fold change vs veh, GMCL1 /// GMCL1P1 / RFU, AEBP2 / Fold change vs veh, AEBP2 / RFU, SNHG1 /// SNORD22 /// SNORD25 /// SNORD26 /// SNORD27 /// SNORD28 /// SNORD29 /// SNORD31 / Fold change vs veh, SNHG1 /// SNORD22 /// SNORD25 /// SNORD26 /// SNORD27 /// SNORD28 /// SNORD29 /// SNORD31 / Fold change (Aza/veh), C12orf56 (ProbeSet 11735607_a_at) / Fold change (ACY-1035/veh), C12orf56 (ProbeSet 11735607_a_at) / Fold change (Aza/veh), FGFR1OP (ProbeSet 11751329_s_at) / Fold change (ACY-1035/veh), FGFR1OP (ProbeSet 11751329_s_at) / Fold change (Aza/veh), VPS36 (ProbeSet 11739960_a_at) / Fold change (ACY-1035/veh), VPS36 (ProbeSet 11739960_a_at) / RFU SYPL1 (11715823_x_at) / Fold change /veh SYPL1 (11715823_x_at) / RFU IGFBP7 (11715501_s_at) / Fold change /veh IGFBP7 (11715501_s_at) / RFU REEP3 (11722064_at) / Fold change /veh REEP3 (11722064_at) / RFU IGLL1 (11728026_x_at) / Fold change /veh IGLL1 (11728026_x_at): dose or concentration left out as unconfirmed
# Conditions: MV-4-11 cells, 48 hours
smiles,measurement,value
Nc1ccc(-c2cccs2)cc1NC(=O)c1ccc2c(c1)cc(C1CC1)n2CCN1CCOCC1 [ACY-1035],RFU LOC730098 (11760151_x_at),35.48 RFU

# Reference: PMC5218480 (PLoS ONE, 2017)
